Measurements: the METLIN SMRT retention time set (Domingo-Almenara et al. 2019)

Experiment: gradient 5% acetonitrile 3 min, to 50% in 2 min, to 85% in 15 min, held 3 min, 100 µL/min
Conditions: column: Zorbax Extend-C18 2.1 x 50 mm; eluents: water / acetonitrile, 0.1% formic acid
In short: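 Mixtures of ~100 pure standards were chromatographed on a Zorbax Extend-C18 column (2.1 × 50 mm, 1.8 μm) at 100 μL/min using water and acetonitrile, each with 0.1% formic acid. Detection used a quadrupole time-of-flight mass spectrometer in positive and negative ionization mode, and data collection spanned 3 months. Retention time was obtained from adduct peaks picked computationally and each checked manually.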

RP-LC retention time [s] | Compound
720 | O=C(Cc1ccc(F)cc1)NC1CCN(c2cc(-c3ccc(F)cc3)[nH]n2)C1 (centres undefined)
744 | CCOc1cc2c(cc1OCC)C1C(C(=O)NCCCOC)c3ccccc3C(=O)N1CC2 (centres undefined)
704 | CCOc1ccc(NC(=O)c2cnc3c(c2)c(=O)n(C)c(=O)n3C)cc1
920 | CCC(C)NC(=O)Cn1c(=O)c2cnc(-c3ccc(C)cc3)nc2n(C)c1=O (centres undefined)
610 | COc1cccc(Nc2cc(C)nc3ccnn23)c1
844 | CC(C)c1nc(NCc2ccc3c(c2)OCO3)ncc1C(=O)O
868 | Cc1c(S(=O)(=O)N2CCC(C(=O)NCc3csc(-c4ccccc4)n3)CC2)cnn1C(F)F
933 | Cc1ccc(-c2nnc(N3CCC(C(=O)NCc4cccs4)CC3)o2)cc1
616 | CC1=C(c2ccc(C)cc2)S(=O)(=O)N=C1N1CCCN(C(=O)Cn2ccnc2C)CC1
979 | COc1ccc(Cl)cc1NC(=O)N(C)CCc1noc(COc2ccccc2F)n1
639 | CCN1CCN(C(=O)CN2c3ccc(F)cc3-c3ccccc3S2(=O)=O)CC1
790 | CC(C)CNC(=O)CN1CCN(Cc2ccc(F)cc2Cl)C1=O
765 | Cc1noc2nc(C)n(CC(=O)Nc3ccc(F)cc3)c(=O)c12
926 | CCn1c(=O)c2ccccc2n(Cc2nc(-c3ccc(SC)cc3)no2)c1=O
791 | CC(C)CCNC(=O)C1(C)Cn2nc(C(=O)NCCc3ccccc3)cc2C(=O)N1C (centres undefined)
632 | O=S(=O)(NCCN1CCOC(c2ccccc2)C1)c1ccc2c(c1)CCCC2 (centres undefined)
680 | CC(=O)Nc1nsc(N2CCC(C(=O)N3CCN(c4ccc(F)cc4)CC3)CC2)n1
616 | Cc1cc(F)cc2c(=O)c3c([nH]c12)CCN(CC(=O)Nc1ccccc1)C3
637 | Cc1cc(C(=O)N2CC(n3cc(COc4ccc(F)cc4)nn3)C2)n(C)n1
667 | COC(=O)c1c(-c2ccc(Cl)cc2)noc1NCCCN1CCOCC1
929 | Cc1[nH]c(C(=O)N2CCCC(C(=O)NCc3ccc(OC(C)C)cc3)C2)c(C)c1C(=O)OC(C)C (centres undefined)

RP-LC retention time [s] | Compound
967 | CC1=NS(=O)(=O)N(C)C=C1C(=O)OCc1cccc(C)c1
789 | O=C(Nc1nnc(C2CCCCC2)s1)C1CCN(C(=O)c2ccccc2)CC1
714 | COc1ccc(N(Cc2nnc3n2CCCCC3)C(=O)Nc2cccc(OC)c2)cc1
810 | COc1ccc(C(=O)N(Cc2cc(OC)c(OC)c(OC)c2)CC2CCCO2)cc1 (centres undefined)
573 | Cc1nnc(N2CCC(C(=O)N3CCN(C)CC3)CC2)c2nn(-c3ccccc3)c(C)c12
719 | O=C(NCc1ccccc1Cl)c1coc(NC(=O)c2cccs2)n1
964 | CCCCn1cc(S(=O)(=O)NCc2cccc(F)c2)c2cccnc21
616 | Cc1nn(CC(=O)N2CCN(C)CC2)c(=O)c2nc(-c3ccccc3)sc12
560 | CCCNc1cc(N2CCC(CCC(=O)NCC3CC3)CC2)ncn1
840 | O=C(NC1CCN(c2cc(-c3ccc(F)cc3)[nH]n2)C1)c1cccc(OC(F)(F)F)c1 (centres undefined)
766 | CCc1nc(NCc2ccc3c(c2)OCO3)ncc1C(=O)O
837 | CN(Cc1ccccc1)Cc1nc(-c2ccc(N3CCSCC3)nc2)no1
659 | COc1cc(OC)c(NC(=O)COc2cc(C)nc(N3CCCCCC3)n2)cc1Cl
674 | Cc1ccnc(NC(=O)Cn2ccc3ccc(-c4nnc(C)o4)cc32)c1
878 | O=C(c1ccc(Br)o1)N1CCN(c2ccc(=O)n(-c3cccc(Cl)c3)n2)CC1
986 | Cc1cc2nc(C(=O)Nc3ccc(F)c(F)c3)cc(C)n2n1
769 | CN1C(=O)c2cc(C(=O)NCCc3ccccc3)nn2CC1(C)C(=O)NCc1ccccc1 (centres undefined)
1140 | Cc1ccc(C)c(N2CCN(c3ccnc(SCC(=O)Nc4ccc(Cl)cc4F)n3)CC2)c1
656 | Cc1nn(-c2ccc(N3CCCCC3)nn2)c(C)c1CCC(=O)N1CCN(c2ncccn2)CC1
681 | COc1ccc2[nH]c(=O)c(CCC(=O)NCCOc3ccccc3OC)cc2c1
986 | Cc1cccc(N2CCN([C@H]3CS(=O)(=O)C[C@@H]3S(=O)(=O)c3ccc(F)c(C)c3)CC2)c1

Continued, molecule first:

Compound | RP-LC retention time [s]
Cc1nc(-c2csc(S(=O)(=O)N3CCC(C(=O)Nc4ccc5c(c4)OCCO5)CC3)c2)no1 | 868
CC1CCN(S(=O)(=O)c2ccc3nc(N4CCN(c5ccccc5F)CC4)ccc3c2)CC1 | 1260
Cc1ccc(-c2cnn3c(N4CCN(c5ccccn5)CC4)cc(C)nc23)cc1 | 751
CCN1c2ccc(C)cc2C(=O)NC12CCN(C(=O)c1ccc(Br)cc1)CC2 | 902
O=C(CCC1CCCC1)Nc1ccc(-c2nnc3n2CCCC3)cc1 | 765
COc1cccc(CNC(=O)C2(C)CCCN(C(=O)Nc3cc(Cl)c(OC)cc3OC)C2)c1 (centres undefined) | 900
O=C(CN1CCN(c2ccccc2)CC1)Nc1nc(-c2ccc(Cl)cc2)cs1 | 834
COC(=O)CCNC(=O)C1c2ccccc2C(=O)N(c2ccccc2)C12CCCCC2 (centres undefined) | 826
CCS(=O)(=O)c1nc2ccc(NS(C)(=O)=O)cc2s1 | 699
Cc1ccc2c(c1)N(S(C)(=O)=O)CCC(C(=O)Nc1ccc(C)c(C)c1)O2 (centres undefined) | 912
CCCCN(C)CCCNC(=O)C1CCN(S(=O)(=O)CCC)CC1 | 968
COc1cccc(-n2ccn3cc(-c4cccc(Cl)c4)nc3c2=O)c1 | 837
CCN1CCCn2cc(S(=O)(=O)N3CCN(c4ccccc4Cl)CC3)cc2C1=O | 912
COc1ccc(CNC(=O)Cn2c(N3CCCC3)nc(C)cc2=O)cc1 | 612
CSc1ccc(C(=O)NC2CCCCC2NC(=O)CNC(=O)c2cc(C(F)(F)F)ccc2NC(=O)NC(C)C)cc1 (centres undefined) | 924
COc1ccc(CNC(=O)c2cnc(OC)nc2)c(OC)c1 | 715
Cc1cc(C2CCCN2C(=O)Nc2ccccc2Cl)on1 (centres undefined) | 830
CN(C)C(=O)c1csc(S(=O)(=O)N2CCC(C(=O)Nc3ccc(F)cc3Cl)CC2)c1 | 792
COCCC1(NC(=O)C2CC2)CCN(S(=O)(=O)c2c(C)noc2C)CC1 | 740
CCOc1ccc(N(C)S(=O)(=O)c2ccsc2C(=O)NCc2cccc(OCC)c2)cc1 | 1160
O=C(CCc1csc(NC(=O)c2ccc(F)cc2)n1)NCc1nc2ccccc2[nH]1 | 577
O=C(C(=O)N1CCN(c2ccccn2)CC1)c1ccc[nH]1 | 556
CCc1nnc(-c2ccc(NS(=O)(=O)c3cccc(OC)c3)cc2)o1 | 801
CC(O)(CCc1ccccc1)CNC(=O)CN1C(=O)CCC1=O (centres undefined) | 631

Compound | RP-LC retention time [s]
CCS(=O)(=O)N1CCCCCC1c1ccccc1Cl (centres undefined) | 1090
CCC(=O)N1CCc2cc(N3CC(C(=O)NC4CCCCC4)CC3=O)ccc21 (centres undefined) | 728
COc1cccc(-c2noc(-c3nn(-c4ccc(Cl)cc4)ccc3=O)n2)c1OC | 896
COCCn1ncc(N2CCC(NC(=O)C(C)(C)C)CC2)cc1=O | 607
CCNc1nc(C)cc(N2CCN(C(=O)Nc3cccc(Cl)c3)CC2)n1 | 695
O=C(NCc1ccco1)c1nc2ccccn2c1-c1ccsc1 | 761
CCc1nc(-c2csc(S(=O)(=O)N3CCCC(C(=O)Nc4cccc(C)c4)C3)c2)no1 (centres undefined) | 983
CCOc1ccc(-c2[nH]nc3nc(-c4cccc(F)c4)cc(C(=O)O)c23)cc1 | 843
Cc1sc(-c2nc(C(C)C)cs2)cc1S(=O)(=O)NCc1cccs1 | 1150
O=C(NCc1ccco1)c1cc(C2CC2)on1 | 717
O=C(NCCc1csc(-c2cccs2)n1)C1CCN(S(=O)(=O)c2ccccc2)CC1 | 889
CCCC(=O)Nc1ccc(-c2nc(Cn3nc(C)cc3C)c(C)o2)cc1 | 818
CCOc1ccc(-c2ccc(=O)n(Cc3nc(-c4cccc(OCC)c4)no3)n2)cc1 | 1150
Cc1oc2ccn(Cc3ccc(F)cc3)c(=O)c2c1C(=O)NCc1cc(F)cc(F)c1 | 1130
Cc1ccc(C)c(S(=O)(=O)NCc2ccc(C(=O)N3CCCCC3C)cc2)c1 (centres undefined) | 961
CCN1c2ccc(C)cc2C(=O)NC12CCN(C(=O)Cc1ccc(C)cc1)CC2 | 887
O=C(Cn1c(=O)c(CCC(=O)NC2CCCC2)nc2ccccc21)Nc1ccc(F)c(F)c1 | 825
O=C(NCC(F)(F)F)C1CCN(C(=O)COc2ccccc2)CC1 | 676
CCN(CC)CCCCN1c2ccccc2Oc2ccc(Cl)cc21 | 843
CCOc1ccc(NC(=O)C2CC(=O)N(CCc3c[nH]c4ccc(F)cc34)C2)cc1 (centres undefined) | 811
COc1ccc(CNC(=O)C2CCN(c3ccc(SCc4ccccc4)nn3)CC2)cc1 | 742
O=C(c1ccc(Cl)s1)N1CCc2nc(-c3ccc(F)cc3)ncc2C1 | 1070
Cc1ccccc1-n1c(/C=C\c2ccccn2)nc2ccccc2c1=O | 948
